According to publication PMC11557217, “Insights into the Functioning of the D-amino Acid Transaminase from Haliscomenobacter Hydrossis via a Structural and Spectral Analysis of its Complex with 3-Aminooxypropionic Acid” (Acta Naturae, 2024):

How the values were obtained:
TA_Halhy [1] = biological target: T1, TA_Halhy (Haliscomenobacter hydrossis, UniProt F4KWH0); test: X-ray crystal structure ([…] Å, co-crystallization); UV/Vis spectra of oxime formation; format: binding; settings: covalent: forms oxime with the PLP cofactor; crystals at pH 5.5, 12 mM compound, 6 mM PLP; spectra at pH 8.0, 25 °C; carboxyl group in O-pocket; reversible
T1 construct: gene Halhy_2446; PLP holoenzyme; homodimer
T1 sequence (F4KWH0 1-281): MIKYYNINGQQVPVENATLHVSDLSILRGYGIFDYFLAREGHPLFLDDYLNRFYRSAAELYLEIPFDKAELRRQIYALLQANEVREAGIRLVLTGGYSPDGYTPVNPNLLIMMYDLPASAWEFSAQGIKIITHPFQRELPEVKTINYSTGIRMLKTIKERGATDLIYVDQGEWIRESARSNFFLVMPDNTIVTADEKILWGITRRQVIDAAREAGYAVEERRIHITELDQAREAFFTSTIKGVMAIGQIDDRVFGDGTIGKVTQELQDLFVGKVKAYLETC

TA_Halhy [2] = biological target: T1, TA_Halhy; test: transamination, lactate dehydrogenase-coupled NADH assay; substrate inhibition curve; format: biochemical; settings: 2.5 mM pyruvate, 30 μM PLP, 50 mM potassium phosphate, pH 8.0, 40 °C
TA_Halhy [3] = biological target: T1, TA_Halhy; test: UV/Vis spectra and activity restoration of the apoenzyme on adding PLP; format: biochemical; settings: 50 mM potassium phosphate, pH 8.0; covalent internal aldimine in the holoenzyme
TA_Halhy [4] = biological target: T1, TA_Halhy; test: transamination; substrate inhibition curve; format: biochemical; settings: 40 mM D-alanine, 30 μM PLP, 50 mM potassium phosphate, pH 8.0, 40 °C

NOCCC(=O)O [3-aminooxypropionic acid, 3-(aminooxy)propanoic acid]
X-ray crystal structure (1.70 Å, co-crystallization); UV/Vis spectra of oxime fo (TA_Halhy [1]): the structure of the TA_Halhy complex has been solved and refined

N[C@H](CCC(=O)O)C(=O)O [D-glutamic acid]
transamination, lactate dehydrogenase-coupled NADH assay; substrate inhibition c (TA_Halhy [2]): TA_Halhy is inhibited by D-glutamic acid and α-ketoglutarate at substrate concentrations as low as millimolars

Cc1ncc(COP(=O)(O)O)c(C=O)c1O [pyridoxal 5'-phosphate]
UV/Vis spectra and activity restoration of the apoenzyme on adding PLP (TA_Halhy [3]): Holoenzyme was formed, and TA_Halhy activity was fully restored, after PLP was added

O=C(O)CCC(=O)C(=O)O [α-ketoglutarate]
transamination; substrate inhibition curve (TA_Halhy [4]): TA_Halhy is inhibited by D-glutamic acid and α-ketoglutarate at substrate concentrations as low as millimolars
